# Test results published in ChEMBL document CHEMBL3885881, “DrugMatrix”.
# Species on record: Rattus norvegicus
# Type: toxicity, organism-based, Sprague-Dawley
# Settings: in vivo, ip, 24 h, route intraperitoneal, time 1 day, vehicle .1 % RSA/SALINE
# [1] = 0 mg/kg, vehicle control, tissue Blood, dose level Control
# [2] = 0 mg/kg, vehicle control, tissue Plasma, dose level Control
# [3] = […], tissue Blood, dose 0.25 mg/Kg, dose level High
# [4] = […], tissue Plasma, dose 0.25 mg/Kg, dose level High
# Description: DrugMatrix - Regimen: Single
substance,measurement,setting,value
"TNF-ALPHA, RAT",ABSOLUTE EOSINOPHIL,[1],109.33 CELLS/uL
same,ABSOLUTE LYMPHOCYTE,[1],13180.67 CELLS/uL
same,ABSOLUTE MONOCYTE,[1],354 CELLS/uL
same,ABSOLUTE SEGMENTED NEUTROPHIL,[1],1756 CELLS/uL
same,BASOPHIL,[1],0%
same,EOSINOPHIL,[1],0.67%
same,ERYTHROCYTE COUNT,[1],5.38 x10E6/uL
same,HEMOGLOBIN,[1],12.57 G/DL
same,LEUKOCYTE COUNT,[1],15.4 x10E3/uL
same,LYMPHOCYTE,[1],85%
same,MEAN CORPUSCULAR HEMOGLOBIN,[1],23.37 pg
same,MEAN CORPUSCULAR HEMOGLOBIN CONCENTRATION,[1],38.3 G/DL
same,NEUTROPHIL,[1],12%
same,NUCLEATED RED BLOOD CELLS,[1],0 /100WBC
same,PLATELET COUNT,[1],832.33 x10E3/uL
same,ALANINE AMINOTRANSFERASE,[2],37.33 u/L
same,ALBUMIN,[2],4 G/DL
same,ALKALINE PHOSPHATASE,[2],344.67 u/L
same,ASPARTATE AMINOTRANSFERASE,[2],69.33 u/L
same,BLOOD UREA NITROGEN,[2],13.67 mg/dL
same,CARBON DIOXIDE,[2],28.33 mmol/L
same,CHLORIDE,[2],99.67 MEQ/L
same,CHOLESTEROL,[2],73.67 mg/dL
same,CREATINE PHOSPHOKINASE,[2],270 u/L
same,CREATININE,[2],0.19 mg/dL
same,GLUCOSE,[2],176.33 mg/dL
same,LACTATE DEHYDROGENASE,[2],160 u/L
same,PHOSPHORUS,[2],13.47 mg/dL
same,POTASSIUM,[2],6.77 MEQ/L
same,TOTAL BILIRUBIN,[2],0.13 mg/dL
same,TOTAL PROTEIN,[2],6.07 G/DL
same,URIC ACID,[2],1.87 mg/dL
same,ABSOLUTE EOSINOPHIL,[3],57.67 CELLS/uL
same,ABSOLUTE LYMPHOCYTE,[3],13018 CELLS/uL
same,ABSOLUTE MONOCYTE,[3],366 CELLS/uL
same,ABSOLUTE SEGMENTED NEUTROPHIL,[3],1925 CELLS/uL
same,BASOPHIL,[3],0%
same,EOSINOPHIL,[3],0.33%
same,ERYTHROCYTE COUNT,[3],5.31 x10E6/uL
same,HEMATOCRIT,[3],32.37%
same,HEMOGLOBIN,[3],12.23 G/DL
same,LEUKOCYTE COUNT,[3],15.37 x10E3/uL
same,LYMPHOCYTE,[3],85%
same,MEAN CORPUSCULAR HEMOGLOBIN,[3],23.03 pg
same,MEAN CORPUSCULAR HEMOGLOBIN CONCENTRATION,[3],37.8 G/DL
same,MEAN CORPUSCULAR VOLUME,[3],60.97 fL
same,NEUTROPHIL,[3],12.33%
same,NUCLEATED RED BLOOD CELLS,[3],0.33 /100WBC
same,PLATELET COUNT,[3],1023.67 x10E3/uL
same,ALANINE AMINOTRANSFERASE,[4],40 u/L
same,ALKALINE PHOSPHATASE,[4],339.67 u/L
same,ASPARTATE AMINOTRANSFERASE,[4],85.67 u/L
same,BLOOD UREA NITROGEN,[4],13.67 mg/dL
same,CHOLESTEROL,[4],76.33 mg/dL
same,CREATINE PHOSPHOKINASE,[4],860.67 u/L
same,CREATININE,[4],0.21 mg/dL
same,GLUCOSE,[4],158.33 mg/dL
same,LACTATE DEHYDROGENASE,[4],124 u/L
same,PHOSPHORUS,[4],11.93 mg/dL
same,POTASSIUM,[4],6.39 MEQ/L
same,SODIUM,[4],145.63 MEQ/L
same,TOTAL BILIRUBIN,[4],0.2 mg/dL
same,TOTAL PROTEIN,[4],6 G/DL
